Twelve molecules from patent US20160002310A1, “MODIFIED INGAP PEPTIDES FOR TREATING DIABETES” (THE ROYAL INSTITUTE FOR THE ADVANCEMENT OF LEARNING/MCGILL …, priority 2013, published 2016) can be followed below.

“Also recorded” adds a separate entry of the source. Positions of bridges follow the written chain, without caps; N, C: chain ends. Residues, ends and D or L forms follow the SMILES beside them. No end group written: not given here.

The test system of one series is Erk½. The experiment in a line: Effect of pharmacological inhibitors on INGAP-induced Erk½ phosphorylation in RIN-m5F cells. The format is cell-based, rat. As to conditions: for Effect of inhibitor on INGAP-induced Erk½ phosphorylation: inhibitor pretreatment, 10 min growth factor. As for the experimental part: 1×10^6 cells were plated in 60 mm plates for 48 hours followed by a 24-h starvation in serum-free medium. Prior to addition of growth factors, cells were pretreated for 30-40 min with the indicated inhibitors, except for Pertussis Toxin (Ptx)(24 h pretreatment). After a 10 min treatment with growth factors, cells were placed on ice and lysed, as described in the Experimental Procedures. Blots (30 μg of proteins) were incubated with Phospho-Erk½ antibody (or with total Erk antibody after stripping) and developed using ECL reagent. Quantification of Erk phosphorylation relative to total Erk and time 0 min control (=1, shown as a dotted line) was performed as described above. (A): Inhibitors of GPCR (Ptx, 100 ng/m1), adenylate cyclase (SQ22536, 250 μM) and PKA (PKi, 100nM; H89, 1μM). (B): inhibitors of PKC (Bis, 1 μM), PI3K (Wm, 100 nM), Src(PP2, 100nM), EGFR(AG1478, 100nM) and Raf Inhibitor l(R-1, 100nM), or DMSO as a solvent (*: p<0.05).
(§1) To investigate signaling events implicated in INGAP induced proliferation, we employed specific pharmacological inhibitors of Raf (Raf inhibitor 1), PI3 K (wortmannin), PKC (Bis), PKA (H89, PKi), Adenylate cyclase (SQ22536), Src (PP2) and EGFR (AG1478). In addition, Pertussis toxin (Ptx) was used to examine whether INGAP actions were mediated by a GPCR. Effectiveness of these inhibitors was judged by Erk½ phosphorylation after 10 min of treatment with INGAP or EGF or Ex-4, and by BrdU incorporation after 24 h.

The subject of series [1] is RIN-m5F cells. The experiment in a line: Effect of pharmacological inhibitors on INGAP-induced BrdU incorporation in RIN-m5F cells. The format is cell-based, rat. The note with it: inhibitor pretreatment, 24 h. As for the experimental part: Cells were plated in chamber slides and subjected to 30−40 min pretreatment with the indicated inhibitors prior to the addition of growth factors and incubated for 24 h. […] BrdU was added for the last three hours of treatment followed by fixation in Methanol and immunostaining for BrdU. Data are presented as a ratio of BrdU(+) cells (%) in treated versus untreated control. Results are means±S.E. of three independent experiments (*: p<0.05, †: p<0.001).
as §1
Background: Dividing cells build labelled thymidine or BrdU into new DNA.

Series [2] in a line: Peptide stability in RPMI-1640 medium with 25% FBS, HPLC. As to conditions: for Comparative peptide stability in FBS: 50 μM peptide; for half-life at 50 μM: bovine. The format is in vitro ADME. The procedure:
50 μM peptides were incubated in RPMI-1640 medium with 25% FBS for the times indicated. Following ethanol precipitation of serum proteins, samples were analyzed by HPLC. To compare dynamics of peptide degradation HPLC profiles were superimposed as shown.
50 μM INGAP-PC and INGAP 19C were incubated in RPMI-1640 medium with 25% FBS for the times indicated. Following ethanol precipitation of serum proteins, samples were analyzed by HPLC. To compare dynamics of peptide degradation, HPLC profiles were superimposed as shown.
Degradation profiles of INGAP-P and INGAP-19 peptides in presence of serum were determined (FIG. 20). 50 μM peptides were incubated in RPMI-1640 medium with 25% FBS for the times indicated. Following ethanol precipitation of serum proteins, samples were analyzed by HPLC. To compare dynamics of peptide degradation HPLC profiles were superimposed as shown.
Time-course studies of in vitro incubation of INGAP-PC and INGAP-19C peptides in FBS were also performed (FIG. 21). 50 μM INGAP-PC and INGAP 19C were incubated in RPMI-1640 medium with 25% FBS for the times indicated. Following ethanol precipitation of serum proteins, samples were analyzed by HPLC. To compare dynamics of peptide degradation, HPLC profiles were superimposed as shown.

Series [3] can be described thus: Stability of 5-FAM labeled INGAP analogs in serum and pancreas of non-diabetic mice after IP injection. The format is in vivo. The note with it: 500 mg/mouse IP, 10 min to 2 h. As for the experimental part:
Prior to the start of the STZ experiments, we tested the stability of INGAP analogs in the serum of non-diabetic mice by injecting 5-FAM labeled INGAP analogs (custom made at Canpeptide, Pointe Claire) at […] IP . The analogs were FAM labeled to determine the post-injection time needed for the peptides to reach the pancreas and to potentially identify the target cells. Mice were sacrificed after 10 min, 30 min, 1 h and 2 h (three mice per group) and blood and tissue samples were collected for processing. Blood serum was precipitated with methanol (1:3) to remove serum proteins and the resulting supernatant was analyzed by HPLC to detect presence of INGAP peptides.
These experiments need to be repeated by using cryosections vs paraffin section to minimize a potential loss of the fluorescence.

Series [4] concerns STZ (streptozotocin)-induced diabetes. The arrangement: species or system mice. As to conditions: mouse, in vivo, ip. The procedure: In this part of the study, we used a well established model of STZ (streptozotocin)-induced diabetes, resulting in a substantial destruction of beta cell mass. Previous studies conducted in our lab have shown islet neogenic effects of INGAP-peptide (15 L) and INGAP protein after the 8-week administration daily.
Referring to FIG. 42, C57BL/6 J mice (Charles River) 20-25 g, were rendered diabetic by a single injection of 150 mg/kg of STZ. The animals with blood glycemias of 15-30 mM after 7 days were used for the experiment. At 7 days, mice were randomized into 5 groups, 10 mice per group, equal representation of each glycemia level, (average glycemia per group being 24.4+0.0167 mM) and were treated with […] of one of the analogs, IP, daily for 10 weeks. Blood glycemia values were taken weekly from the tip of the tail (fasting and/or non-fasting). The weight of animals was also taken weekly.
After 10 weeks of treatment, the animals were sacrificed and the pancreata were weighed and processed for RNA extraction (still ongoing) and Immunocytochemistry.

Series [5] relates to RIN-m5F cells. Briefly: BrdU incorporation (proliferation) in RIN-m5F cells, 24 h. The format is cell-based, rat. The note with it: positive control. The procedure:
(A): INGAP increased BrdU incorporation. RIN-m5F cells were treated with indicated amounts of INGAP-P or r-INGAP for 24 h in chamber slides. Exendin 4 (Ex4) and EGF were used as controls. 50 μM BrdU was added for the last three hours of treatment followed by fixation in methanol and immunostaining for BrdU. Data are presented as a ratio of BrdU(+) cells (%) in INGAP-treated to untreated control. Results are means±S.E. of three independent experiments (*: p<0.05, §: p<0.001, compared to untreated control). (B): INGAP induced phosphorylation of Erk½ in RIN-m5F. RIN-m5F cells (1×10^6) plated in 60 mm tissue culture plates were treated with INGAP for the times indicated. Blots (30 μg protein) were probed with anti-Erk½-Phospho (Thr202/Tyr204) antibody, followed by stripping/reprobing with anti-total Erk½ antibody (Cell Signaling) and quantified by densitometry, using ImageJ software. (C): Quantification of relative Erk½ phosphorylation measured as a ratio of Phospho-Erk½ to total Erk½ and shown as a Fold Change relative to the 0 min time point. […]
Cells plated in 8-well or 4-well chamber slides (5×10^4 or 1×10^5 cells per well) were treated for 24 h with INGAP, EGF or Ex 4, as described above, and 50 μM BrdU was added during the last 3 hours of treatment. […] BrdU-positive and negative nuclei were counted (total 200 per well) and the percentage of BrdU-positive nuclei was calculated (FIG. 36).

The test system of another series is Akt. Briefly: Akt phosphorylation in RIN-m5F cells. The note with it: time course. The format is cell-based, rat.

With `COc1cc2ncnc(Nc3cccc(Cl)c3)c2cc1OC` [AG1478], in the series on Erk½, the “Effect of inhibitor on INGAP-induced Erk½ phosphorylation” value is listed as “not affected”.
Consider `O=S(=O)(NCCNC/C=C/c1ccc(Br)cc1)c1cccc2cnccc12` [H89], for which the “Effect of inhibitor on BrdU incorporation induced by growth factors” value (from here on “Effect of inhibitor … by growth factors”) in the series with RIN-m5F cells [1] is “reduced BrdU incorporation in rINGAP treated cells”.
Turning to `CC[C@H](C)[C@@H]1NC(=O)[C@H](Cc2c[nH]c3ccccc23)NC(=O)[C@H]([C@@H](C)CC)NC(=O)[C@@H](N)CSSC[C@@H](C(=O)O)NC(=O)[C@H](Cc2c[nH]c3ccccc23)NC(=O)CNC(=O)[C@H](CO)NC(=O)CNC(=O)[C@H](CC(N)=O)NC(=O)[C@@H]2CCCN2C(=O)[C@H](CC(C)C)NC(=O)[C@H]([C@@H](C)O)NC(=O)CNC(=O)[C@H](Cc2c[nH]cn2)NC(=O)[C@H](CO)NC(=O)[C@@H]2CCCN2C(=O)[C@H](CC(=O)O)NC(=O)[C@H](Cc2c[nH]cn2)NC(=O)[C@H](CC(C)C)NC(=O)CNC1=O` [INGAP-19C] (H-CIWIGLHDPSHGTLPNGSGWC-OH; disulfide 1-21), the “Comparative peptide stability in FBS” value in series [2] (RPMI-1640 with 25% FBS) is “highest stability; also recorded: more stable than linear 15-mer (INGAP-P) or 19-mer (INGAP-19) peptides”. Further, the “Degradation in presence of serum” value in series [2] (48 h, 50 μM, RPMI-1640 with 25% FBS) was “no degradation”. Besides, in series [2] (culture medium, preliminary HPLC data), the “Time stable in culture medium” value is on record as “up to 48 h”. For the same molecule, in series [3], the “Presence of peptide in blood serum after injection (HPLC)” value is listed as “still detectable at 2 h”. For the same molecule, the “Losses of animals in group” value in series [4] worked out at 1.
By half-life is commonly meant how long it takes for the measured level to halve. A higher half-life goes with slow decline. In turn, `CC[C@H](C)[C@@H]1NC(=O)[C@@H](N)CSSC[C@@H](C(=O)O)NC(=O)[C@H](CO)NC(=O)CNC(=O)[C@H](CC(N)=O)NC(=O)[C@@H]2CCCN2C(=O)[C@H](CC(C)C)NC(=O)[C@H]([C@@H](C)O)NC(=O)CNC(=O)[C@H](Cc2c[nH]cn2)NC(=O)[C@H](CO)NC(=O)[C@@H]2CCCN2C(=O)[C@H](CC(=O)O)NC(=O)[C@H](Cc2c[nH]cn2)NC(=O)[C@H](CC(C)C)NC(=O)CNC1=O` [INGAP-PC, N′-CIGLHDPSHGTLPNGSC-C′] (H-CIGLHDPSHGTLPNGSC-OH; disulfide 1-17) returned a half-life in series [2] (buffer, culture medium, preliminary HPLC data) of 4 to 6 h. In series [4], the “Losses of animals in group” value is listed as “no losses”.
Take `COc1cccc(-c2cc(=O)c3ccccc3o2)c1N` [PD98059]: the “Effect of inhibitor on INGAP-induced Erk½ phosphorylation” value in the series on Erk½ was “inhibition”. In the series on RIN-m5F cells [1], the “Effect of inhibitor … by growth factors” value was “inhibition”.
Take `CC(C)(C)n1nc(-c2ccc(Cl)cc2)c2c(N)ncnc21` [PP2]: the “Effect of inhibitor on INGAP-induced Erk½ phosphorylation” value in the series on Erk½ is “inhibited both Erk½ phosphorylation (FIG. 8B) and proliferation (FIG. 16) stimulated by r-INGAP, but not by INGAP-P”. For the same molecule, the “Effect of inhibitor … by growth factors” value with RIN-m5F cells [1] is “inhibited both Erk½ phosphorylation (FIG. 8B) and proliferation (FIG. 16) stimulated by r-INGAP, but not by INGAP-P”.
On to `Nc1ncnc2c1ncn2C1CCCO1` (stereo not drawn) [SQ22536], for which the “Effect of inhibitor on INGAP-induced Erk½ phosphorylation” value in the series with Erk½ was “slightly increased it”.
On to “EGF: positive control growth factor, signals through a classical RTK pathway”, for which, in the series with RIN-m5F cells [5] (10 ng/ml), the “BrdU incorporation, increase compared to negative control” value is 1.49 ×. In addition, the Akt phosphorylation result with Akt is “early activation of Akt”.
On to Exendin 4, for which the “BrdU incorporation, increase compared to negative control” value in the series with RIN-m5F cells [5] (10 nM) worked out at 1.56 ×. In the series on Akt, the Akt phosphorylation entry is recorded as “strongest activation of Akt”.
As to “IGLHDPSHGTLPNGS [INGAP-P, N′-IGLHDPSHGTLPNGS-C′]”, the “Comparative peptide stability in FBS” value in series [2] (RPMI-1640 with 25% FBS) is “degraded at a similar rate”. Also, the half-life at 50 μM in series [2] (culture medium (RPMI-1640) with 25% fetal bovine serum, culture medium, preliminary HPLC data) was 4 to 6 h.
Take “IWIGLHDPSHGTLPNGSGW [INGAP-19, N′-IWIGLHDPSHGTLPNGSGW-C′]”: the “Comparative peptide stability in FBS” value in series [2] (RPMI-1640 with 25% FBS) is “no advantage of INGAP-19 over INGAP-P”. The molecule also showed a half-life at 50 μM in series [2] (fetal bovine serum (25%) in RPMI-1640 culture medium, culture medium, preliminary HPLC data) of 4 to 6 h. Further, the “Presence of peptide in blood serum after injection (HPLC)” value in series [3] is “undetectable at 1 h”.
Pertussis toxin [Ptx]: the “Inhibition of INGAP-induced activation of Erk½” value with Erk½ (24 h exposure to inhibitor, 10 min INGAP) worked out at 40%.
